Source: patent US8207155B2, “Sulfonyl-azetidin-3-yl-methylamine amide analogs as GlyTl inhibitors, methods for making same, and use of same in treating psychiatric disorders” (Vanderbilt University, priority 2009, dated 2012)
Read-outs that look alike come from different tables or passages of the source.

Molecular target: T1, GlyT1 (Homo sapiens, UniProt P48067)
T1 construct: Human placental choriocarcinoma cells endogenously expressing GlyT1; endogenous in cells; host or cells: JAR human placental choriocarcinoma cells
T1 sequence (P48067 1-706): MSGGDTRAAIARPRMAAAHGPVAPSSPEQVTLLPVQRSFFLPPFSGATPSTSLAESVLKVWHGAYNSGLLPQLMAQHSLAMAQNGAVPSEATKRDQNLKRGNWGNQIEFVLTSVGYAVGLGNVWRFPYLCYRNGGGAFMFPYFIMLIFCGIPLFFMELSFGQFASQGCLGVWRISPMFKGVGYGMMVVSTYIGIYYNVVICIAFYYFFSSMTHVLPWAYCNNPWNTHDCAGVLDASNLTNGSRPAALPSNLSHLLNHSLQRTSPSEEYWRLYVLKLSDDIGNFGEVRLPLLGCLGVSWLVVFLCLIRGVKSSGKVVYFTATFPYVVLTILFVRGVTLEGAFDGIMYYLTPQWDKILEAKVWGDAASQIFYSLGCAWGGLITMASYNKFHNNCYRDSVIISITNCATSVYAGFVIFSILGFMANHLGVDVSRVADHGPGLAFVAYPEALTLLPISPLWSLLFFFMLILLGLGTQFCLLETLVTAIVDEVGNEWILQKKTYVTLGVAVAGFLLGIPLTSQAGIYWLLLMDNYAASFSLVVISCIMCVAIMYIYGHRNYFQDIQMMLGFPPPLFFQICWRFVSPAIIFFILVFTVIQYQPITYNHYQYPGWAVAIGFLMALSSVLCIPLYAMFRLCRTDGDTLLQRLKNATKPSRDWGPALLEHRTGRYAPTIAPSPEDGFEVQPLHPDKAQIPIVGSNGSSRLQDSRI
Assay: GlyT1 [14C]-glycine uptake inhibition in human placental choriocarcinoma (JAR) cells
Format: cell-based
Conditions: inhibition of specific [14C]-glycine uptake, cells endogenously expressing GlyT1, read-out: Potency (IC50)
Experimental: Human placental choriocarcinoma cells endogenously expressing GlyT1 can be cultured using standard conditions. Cells can then be grown at 37° C. in a humidified atmosphere 40-48 hours before the assay. Culture medium can be removed from the culture plate, and cells can be incubated with an amount of TB1A buffer with or without the compounds of the present invention for a sufficient period of time. Then an amount of [^14C]-glycine diluted with TB1A can be added to each well. After incubation the microplates can be sealed and counted. Non-specific uptake of [^14C]-glycine can be determined in the presence of unlabeled glycine. To determine potencies, a range of concentrations of the compounds of the present invention can be added to the cells, followed by the fixed concentration of [^14C]-glycine. The concentration of the present compound that inhibited half of the specific uptake of [^14C]glycine (IC50 value) can be determined from the assay data by non-linear curve fitting.

IC50 (values in nM) [nM]	SMILES	other results
	CCCS(=O)(=O)N1CC(C(NC(=O)c2ccc(Cl)cc2Cl)c2ccccc2)C1 (single isomer, unassigned) [Compound 3a-1, 2,4-dichloro-N-(phenyl(1-(propylsulfonyl)azetidin-3-yl)methyl)benzamide]	IC50 (values given in μM): > 10000 nM
627	CCCS(=O)(=O)N1CC(C(NC(=O)c2ccc(Cl)cc2Cl)c2ccccc2)C1 (single isomer, unassigned) [Compound 3a-2, 2,4-dichloro-N-(phenyl(1-(propylsulfonyl)azetidin-3-yl)methyl)benzamide]	
	Cn1cnc(S(=O)(=O)N2CC(C(NC(=O)c3ccc(Cl)cc3Cl)c3ccccc3)C2)c1 (single isomer, unassigned) [Compound 3b-1, 2,4-dichloro-N-((1(1-methyl-1H-imidazol-4-ylsulfonyl)azetidin-3-yl)(phenyl)methyl)benzamide]	IC50 (value printed in pM): 0.029 nM
627	Cn1cnc(S(=O)(=O)N2CC(C(NC(=O)c3ccc(Cl)cc3Cl)c3ccccc3)C2)c1 (single isomer, unassigned) [Compound 3b-2, 2,4-dichloro-N-((1(1-methyl-1H-imidazol-4-ylsulfonyl)azetidin-3-yl)(phenyl)methyl)benzamide]	
730	CCCS(=O)(=O)N1CC(C(NC(=O)c2ccc(Cl)cc2Cl)c2ccccc2)C1 (centres unmarked) [Compound 3a, 2,4-dichloro-N-(phenyl(1-(propylsulfonyl)azetidin-3-yl)methyl)benzamide]	
39	Cn1cnc(S(=O)(=O)N2CC(C(NC(=O)c3ccc(Cl)cc3Cl)c3ccccc3)C2)c1 (centres unmarked) [Compound 3b, 2,4-dichloro-N-((1(1-methyl-1H-imidazol-4-ylsulfonyl)azetidin-3-yl)(phenyl)methyl)benzamide]	
133	Cn1cnc(S(=O)(=O)N2CC(C(NC(=O)c3ccccc3Cl)c3ccccc3)C2)c1 (centres unmarked) [Compound 9a]	
334	Cn1cnc(S(=O)(=O)N2CC(C(NC(=O)c3ccc(Cl)cc3)c3ccccc3)C2)c1 (centres unmarked) [Compound 9b]	
446	Cn1cnc(S(=O)(=O)N2CC(C(NC(=O)c3ccc(Cl)c(Cl)c3)c3ccccc3)C2)c1 (centres unmarked) [Compound 9c]	
	Cn1cnc(S(=O)(=O)N2CC(C(NC(=O)c3ccc(F)cc3)c3ccccc3)C2)c1 (centres unmarked) [Compound 9d]	IC50 (values given in μM): > 10000 nM
	Cn1cnc(S(=O)(=O)N2CC(C(NC(=O)c3ccccc3F)c3ccccc3)C2)c1 (centres unmarked) [Compound 9e]	IC50 (values given in μM): 1100 nM
439	Cn1cnc(S(=O)(=O)N2CC(C(NC(=O)c3c(F)cccc3F)c3ccccc3)C2)c1 (centres unmarked) [Compound 9f]	
101	Cn1cnc(S(=O)(=O)N2CC(C(NC(=O)c3ccccc3C(F)(F)F)c3ccccc3)C2)c1 (centres unmarked) [Compound 9g]	
454	Cn1cnc(S(=O)(=O)N2CC(C(NC(=O)c3ccc(F)cc3F)c3ccccc3)C2)c1 (centres unmarked) [Compound 9h]	
	Cn1cnc(S(=O)(=O)N2CC(C(NC(=O)c3ccc(F)c(F)c3)c3ccccc3)C2)c1 (centres unmarked) [Compound 9i]	IC50 (values given in μM): 1000 nM
	Cn1cnc(S(=O)(=O)N2CC(C(NC(=O)c3cc(Cl)cc(Cl)c3)c3ccccc3)C2)c1 (centres unmarked) [Compound 9j]	IC50 (values given in μM): 1500 nM
718	Cn1cnc(S(=O)(=O)N2CC(C(NC(=O)c3cccnc3Cl)c3ccccc3)C2)c1 (centres unmarked) [Compound 9k]	
394	CC(C)C(NC(=O)c1ccc(Cl)cc1Cl)C1CN(S(=O)(=O)c2cn(C)cn2)C1 (centres unmarked) [Compound 10a]	
185	CCCC(NC(=O)c1ccc(Cl)cc1Cl)C1CN(S(=O)(=O)c2cn(C)cn2)C1 (centres unmarked) [Compound 10b]	
40	Cn1cnc(S(=O)(=O)N2CC(C(NC(=O)c3ccc(Cl)cc3Cl)c3cccs3)C2)c1 (centres unmarked) [Compound 10c]	
253	Cn1cnc(S(=O)(=O)N2CC(C(NC(=O)c3ccc(Cl)cc3Cl)C3CC3)C2)c1 (centres unmarked) [Compound 10d]	
	Cn1cnc(S(=O)(=O)N2CC(C(NC(=O)c3ccc(Cl)cc3Cl)C3CCCC3)C2)c1 (centres unmarked) [Compound 10e]	IC50 (values given in μM): 1600 nM
581	CC(C)CC(NC(=O)c1ccc(Cl)cc1Cl)C1CN(S(=O)(=O)c2cn(C)cn2)C1 (centres unmarked) [Compound 10f]	
356	Cn1cnc(S(=O)(=O)N2CC(C(NC(=O)c3ccccc3Cl)c3ccccn3)C2)c1 (centres unmarked) [Compound 10g]	
256	Cn1cnc(S(=O)(=O)N2CC(C(NC(=O)c3ccccc3C(F)(F)F)c3ccccn3)C2)c1 (centres unmarked) [Compound 10h]	
940	Cn1cnc(S(=O)(=O)N2CC(C(NC(=O)c3ccc(Cl)cc3)c3ccccn3)C2)c1 (centres unmarked) [Compound 10i]	
